Results on one compound are retold here after patent US20250296938A1, “Compounds that Interact with the Ras Superfamily for the Treatment of Cancers, Inflammatory Diseases, Rasopathies, and Fibrotic Disease” (SHY Therapeutics, LLC, priority 2018, published 2025).

Structures are written as SMILES.

Experiment [1] addresses T1, K-Ras (G12D) (Homo sapiens, UniProt P01116, G12D). The experiment is described as follows: Scintillation Proximity Assay (SPA), GTP affinity. Type of experiment: binding. The text has this:
(§1) As disclosed in International Application No. PCT/US2018/038613 and U.S. patent application Ser. No. 16/013,872, the affinity of GTP for the GTP binding domain of K-Ras utilizing a Scintillation Proximity Assay (SPA) and MicroScale Thermophoresis (MST) has been measured. These methods were not available when Wittinghofer and colleagues undertook their studies.
(§2) This therefore led to the novel, unanticipated conclusion that compounds such as small molecules could be discovered that would bind to a Ras GTP binding domain and compete with the binding of GTP to Ras.
(§3) See Khawaja et al., “Scintillation proximity assay in lead discovery”, Expert Opin. Drug Discov., 2008 November; 3 (11): 1267-80 regarding SPA procedures. See the following references regarding MST technology: Wienken et al., Nature Communications (2010), Protein binding assays in biological liquids using MicroScale Thermophoresis; Jerabek-Willemsen et al., ASSAY and Drug Development Technologies (2011), Molecular interaction studies using MicroScale Thermophoresis; Lin et al., Cell (2012), Inhibition of basal FGF receptor signaling by dimeric Grb2; Seidel et al., Angewandte Chemie (2012), Label-Free MicroScale Thermophoresis discriminates sites and affinity of protein-ligand binding; Seidel et al., Methods (2012), MicroScale Thermophoresis quantifies biomolecular interactions under previously challenging conditions; Parker & Newstead, Nature (2014), Molecular basis of nitrate uptake by the plant nitrate transporter NRT1.1; and Jerabek-Willemsen et al., Journal of Molecular Structure (2014), MicroScale Thermophoresis: Interaction analysis and beyond.

Experiment [2] has as its target T2, K-Ras (Q61H) (Homo sapiens, UniProt P01116, Q61H). Description: Scintillation Proximity Assay (SPA), GTP affinity. Type of experiment: binding.
Excerpt: as §1, §2, §3
Background: SPA uses beads or plates that emit light when radiolabelled molecules are held near them.

The target in experiment [3] is T3, K-Ras (G12C) (Homo sapiens, UniProt P01116, G12C). The experiment is described as follows: Scintillation Proximity Assay (SPA), GTP affinity. Type of experiment: binding.
T3 sequence (P01116 1-188 isoform P01116-2 G12C): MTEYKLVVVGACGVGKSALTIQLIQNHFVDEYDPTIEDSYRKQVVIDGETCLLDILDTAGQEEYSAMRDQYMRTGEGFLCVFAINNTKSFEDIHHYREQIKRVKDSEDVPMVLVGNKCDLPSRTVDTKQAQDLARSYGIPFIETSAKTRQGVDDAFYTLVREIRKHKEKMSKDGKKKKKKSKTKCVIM
Excerpt: as §1, §2, §3

Experiment [4] concerns the target T4, K-Ras (wild type) (Homo sapiens, UniProt P01116). Description: Scintillation Proximity Assay (SPA), GTP affinity. Type of experiment: binding.
Excerpt: as §1, §2, §3

For experiment [5], the target named is GTP binding domain of Ras. The note with it: literature (Feuerstein 1987; John 1990); cited from earlier work.
The target in experiment [6] is T1, K-Ras (G12D). Description: MicroScale Thermophoresis (MST), GTP affinity. Type of experiment: binding.
Excerpt: as §1, §2, §3
A general note: MST reads how a fluorescent partner responds to local heating, with and without ligand.

In experiment [7] the target is T2, K-Ras (Q61H). The experiment is described as follows: MicroScale Thermophoresis (MST), GTP affinity. Type of experiment: binding.
Excerpt: as §1, §2, §3

In experiment [8] the target is T3, K-Ras (G12C). Description: MicroScale Thermophoresis (MST), GTP affinity. In kind it is binding.
Excerpt: as §1, §2, §3

Experiment [9] has as its target T4, K-Ras (wild type). The experiment is described as follows: MicroScale Thermophoresis (MST), GTP affinity. Type of experiment: binding.
Excerpt: as §1, §2, §3

The target in experiment [10] is T5, Rho-A (Homo sapiens, UniProt P61586). The experiment is described as follows: MicroScale Thermophoresis (MST), GTP affinity. In kind it is binding.
T5 sequence (P61586 whole entry): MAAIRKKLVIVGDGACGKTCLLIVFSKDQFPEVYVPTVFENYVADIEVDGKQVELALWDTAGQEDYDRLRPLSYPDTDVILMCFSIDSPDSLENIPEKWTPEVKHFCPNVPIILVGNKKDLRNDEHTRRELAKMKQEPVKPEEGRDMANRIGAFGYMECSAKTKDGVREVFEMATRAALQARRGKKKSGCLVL
Excerpt: as §1, §2, §3

The target in experiment [11] is T5, Rho-A. Description: Scintillation Proximity Assay (SPA), GTP affinity. In kind it is binding.
Another experiment deals with K-Ras GTP binding domain. Description: SPA and MST studies, GTP affinity across wild type and mutant K-Ras.
Excerpt: as §2, §3

The target in experiment [12] is T6, Rac-1 (Homo sapiens, UniProt P63000). The experiment is described as follows: MicroScale Thermophoresis (MST), GTP affinity. Type of experiment: binding.
A further experiment concerns the target Rac-1 and Rho-A. The experiment is described as follows: SPA and MST studies, GTP affinity for Rho subfamily members. The note with it: read-out: affinity of GTP for the binding domain of Rho subfamily members.
Excerpt: as §2, §3

Experiment [13] deals with T6, Rac-1. Description: Scintillation Proximity Assay (SPA), GTP affinity. In kind it is binding.

T1 sequence (P01116 1-188 isoform P01116-2 G12D): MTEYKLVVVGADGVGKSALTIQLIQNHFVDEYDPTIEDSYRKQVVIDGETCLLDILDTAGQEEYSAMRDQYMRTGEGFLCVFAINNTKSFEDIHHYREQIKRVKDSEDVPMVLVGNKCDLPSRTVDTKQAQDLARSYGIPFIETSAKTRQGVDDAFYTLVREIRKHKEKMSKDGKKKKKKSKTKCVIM
T2 sequence (P01116 1-188 isoform P01116-2 Q61H): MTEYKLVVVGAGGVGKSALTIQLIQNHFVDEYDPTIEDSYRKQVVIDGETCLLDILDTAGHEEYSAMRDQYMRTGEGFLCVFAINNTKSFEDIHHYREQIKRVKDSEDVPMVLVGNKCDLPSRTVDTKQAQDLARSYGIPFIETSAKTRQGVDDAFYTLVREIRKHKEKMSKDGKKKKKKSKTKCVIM
T4 sequence (P01116 1-188 isoform P01116-2): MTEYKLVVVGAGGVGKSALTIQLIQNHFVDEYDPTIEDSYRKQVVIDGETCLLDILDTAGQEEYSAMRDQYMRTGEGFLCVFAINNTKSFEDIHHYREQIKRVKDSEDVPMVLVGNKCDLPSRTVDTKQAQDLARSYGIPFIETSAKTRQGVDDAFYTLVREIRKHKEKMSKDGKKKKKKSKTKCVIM

Consider `Nc1nc2c(ncn2[C@@H]2O[C@H](COP(=O)(O)OP(=O)(O)OP(=O)(O)O)[C@@H](O)[C@H]2O)c(=O)[nH]1` [GTP], for which the Kd at K-Ras (G12D) [1] is 270 ± 15 nM; at K-Ras (Q61H) [2] it was 118 ± 11 nM; on K-Ras (G12C) [3], 258 ± 18 nM; on K-Ras (wild type) [4], 243 ± 15 nM; on K-Ras (G12D) [6] it was 244 ± 12 nM; at K-Ras (Q61H) [7] it was 157 ± 21 nM. Besides, the Kd was 207 ± 46 nM on K-Ras (G12C) [8]; 463 ± 2 nM on K-Ras (wild type) [9]; 130 ± 5 nM at Rho-A [10]; 129 ± 12 nM at Rho-A [11]; 100 to 465 nM at K-Ras GTP binding domain; 166 ± 10 nM at Rac-1 [12]. For the same compound, the Kd at Rac-1 and Rho-A was 120 to 170 nM; at Rac-1 [13] it was 151 ± 14 nM. Also, the “affinity for the GTP binding domain of Ras” value in [5] was “single to double digit picomolar”.
